# Results from patent US6361998B1, “Efficient culture of stem cells for the production of hemoglobin” (Hemosol Inc., priority 1999, dated 2002).
# Legend:
# [1] = test system: CD34^+ enriched cells from human umbilical cord blood LDMNC; test: Expansion and differentiation of CD34+ enriched cells in serum-free suspension culture; assay type: cell-based; details: hemin added to defined culture medium (25 uM, FIG. 3)
# Procedure: CD34^+ cells were enriched from human umbilical cord blood LDMNC by lineage depletion of cells expressing CD3, CD14, CD16, CD19, CD24, CD56, CD66b and glycophorin A (GlyA) to enrich lin^− cells. The viability of CD34^+ cells pre- and post-enrichment was determined by trypan-blue dye exclusion and cells were characterized for CD34 and CD45 co-expression by standard flow cytometry methods (see Table 2, FIG. 1).
# CD34^+ cells were cultured at an initial seeding density of 1-2×10^4 cells/ml in EPSFM+LDL with the composition described in Table 1B. […]
# At the end of 30 days in culture cells were fully differentiated erythroid cells with 57% of the cells staining positively with benzidine and 85% of the cells expressing the erythroid-specific membrane glycoprotein glycophorin A (GlyA). […] The amount of hemoglobin per cell was determined to be 5.2 pg using Western blot analysis. […]
# CD34^+ enriched cells were cultured for 7 to 11 days, as described in Example 1. […] Fewer than 2% of the cells expressed CD34, and hematopoietic progenitors were present at a frequency of 21 BFU-E, 33 CFU-E and 25 CFU-GM per 1×10^5 cells as detected in methylcellulose colony forming assay. […] Field strength, capacitance, and pulse width were optimized to achieve an average transfection efficiency of approximately 20% as measured at 24 hours post-electroporation.
# CD34^+ enriched cells [2] = test: Addition of SA and hemin to EPSFM+LDL culture of CD34+ enriched cells, Hb content; assay type: cell-based, human; details: at culture termination; SA 25 uM; hemin (if any) 25 uM at initiation of culture
# Procedure: CD34^+ enriched cells were isolated and cultured in EPSFM+LDL as described in Example 1. In some samples, SA was added to EPSFM+LDL to a final concentration of 25 uM. In some instances, hemin was added to the SA containing cultures to a final hemin concentration of 25 uM. Hemin was added to some SA containing cultures at the initiation of culture and to others after 15 days of culture. The addition of SA, an inhibitor of heme synthesis, to EPSFM+LDL increased the fold expansion of cells obtained but reduced the percentage of GlyA^+ cells and the Hb content of these cells (Table 10). The low hemoglobin content was ameliorated by the addition of hemin to EPSFM+LDL+SA at the initiation of culture. However, as the percentage of GlyA^+ cells was decreased in this instance, the total amount of Hb per culture is similar to that observed with culture in EPSFM+LDL alone. The addition of hemin after 15 days of culture, instead of at culture initiation, further increased the fold expansion without reducing the percentage of GlyA^+ cells. Unexpectedly, the amount of hemoglobin per cell increased to approximately that obtained with EPSFM+LDL.
# CD34^+ enriched cells [3] = test: Expansion and differentiation of CD34+ enriched cells with SA added to EPSFM+LDL; assay type: cell-based, human
# Procedure: CD34^+ enriched cells were isolated and cultured as described in Example 1. Succinylacetone (SA), a heme synthesis inhibitor, was added to EPSFM+LDL at concentrations of 25 to 250 uM at the initiation of culture. Results are depicted in Table 4 and FIGS. 4 to 6. The addition of 50 uM SA to EPSFM+LDL increased cell expansion 8-fold when compared to controls without SA (FIG. 4).
# BaF3 cells [4] = details: cited from earlier work
# BaF3 cells [5] = test: Cytokine-dependency growth of BaF3 cells transfected with human EpoR constructs; assay type: cell-based, murine; details: for growth of BaF3 transfectants: no exogenous IL-3
# Procedure: The functionality of the EpoR(t439; R154C) was tested and compared to the wild-type EpoR (wtEpoR) and EpoR(t439) using the BaF3 cell line. The cDNAs encoding these three different EpoRs were subcloned into the pcDNA3.1 expression vector, which provides high-level constitutive expression of proteins in mammalian cells and also contains the neomycin gene for the selection of stable transfectant with G418. The vector constructs were electroporated into BaF3 cells and stable transfectants were isolated in the presence of 600 ug/ml G418. BaF3 transfectants were maintained in RPMI-1640 with 10% FBS and 5% WEHI conditioned medium (a source of murine IL-3), except during the cytokine-dependency studies when cells were maintained in RPMI-1640 plus 10% FBS, along with the indicated cytokines. Growth of the different EpoR transfectants in the presence of either murine IL-3 or two different doses of Epo was compared to that of the parental (non-transfected) BaF3 cells (FIG. 7). […] All three EpoR constructs encode functional receptors that allow expansion of the BaF3 cells in the presence of Epo without exogenous IL-3.
molecule,measurement,setting,value
hemin,"effect of hemin addition on Hb content, number of GlyA cells and BZ positive cells",[1],did not substantially increase
"CC(=O)CC(=O)CCC(=O)O [SA, Succinylacetone]",% GlyA positive cells,CD34^+ enriched cells [2],74%
same,Hb per GlyA^+ cell,CD34^+ enriched cells [2],0.95 pg/cell
same,Total Hb per culture,CD34^+ enriched cells [2],0.03 g
same,Total number of GlyA^+ cells,CD34^+ enriched cells [2],2.9 × 10^10
same,Total number of cells,CD34^+ enriched cells [2],3.9 × 10^10
same,Total fold expansion (n = 3),CD34^+ enriched cells [3]; 25 uM SA added to EPSFM + LDL,6.36 × 10^6
same,Total fold expansion (n = 3),CD34^+ enriched cells [3]; 50 uM SA added to EPSFM + LDL,2.89 × 10^7
same,increase in cell expansion compared to controls without SA,CD34^+ enriched cells [3]; 50 uM SA in EPSFM+LDL,8 fold
same,suppression of BZ staining and GlyA expression,CD34^+ enriched cells [3]; 250 uM SA,Maximum suppression
same,Total fold expansion (n = 3),CD34^+ enriched cells [3]; 250 uM SA added to EPSFM + LDL,6.77 × 10^6
same,percentages of BZ+ and GlyA+ cells after SA removal,"CD34^+ enriched cells [3]; SA removed after at least 20 days of culture, by the following passage",increased significantly
same,erythroid differentiation (percentages of BZ+ and GlyA+ cells),CD34^+ enriched cells [3]; increasing amounts of SA (25 to 250 uM),reduced erythroid differentiation
"EpoR(R129C): murine EpoR with Arg129 replaced by Cys, constitutively active (literature) (protein, UniProt P14753 25-507, looked up, variant R129C) Erythropoietin receptor: APSPSLPDPKFESKAALLASRGSEELLCFTQRLEDLVCFWEEAASSGMDFNYSFSYQLEGESRKSCSLHQAPTVRGSVRFWCSLPTADTSSFVPLELQVTEASGSPRYHRIIHINEVVLLDAPAGLLACRAEEGSHVVLRWLPPPGAPMTTHIRYEVDVSAGNRAGGTQRVEVLEGRTECVLSNLRGGTRYTFAVRARMAEPSFSGFWSAWSEPASLLTASDLDPLILTLSLILVLISLLLTVLALLSHRRTLQQKIWPGIPSPESEFEGLFTTHKGNFQLWLLQRDGCLWWSPGSSFPEDPPAHLEVLSEPRWAVTQAGDPGADDEGPLLEPVGSEHAQDTYLVLDKWLLPRTPCSENLSGPGGSVDPVTMDEASETSSCPSDLASKPRPEGTSPSSFEYTILDPSSQLLCPRALPPELPPTPPHLKYLYLVVSDSGISTDYSSGGSQGVHGDSSDGPYSHPYENSLVPDSEPLHPGYVACS",cytokine dependence of BaF3 cell growth,BaF3 cells [4]; over-expression of murine EpoR(R129C),permits cytokine-independent growth of BaF3 cells
EpoR: full length wild-type human erythropoietin receptor (protein) APPPNLPDPKFESKAALLAARGPEELLCFTERLEDLVCFWEEAASAGVGPGNYSFSYQLEDEPWKLCRLHQAPTARGAVRFWCSLPTADTSSFVPLELRVTAASGAPRYHRVIHINEVVLLDAPVGLVARLADESGHVVLRWLPPPETPMTSHIRYEVDVSAGNGAGSVQRVEILEGRTECVLSNLRGRTRYTFAVRARMAEPSFGGFWSAWSEPVSLLTPSDLDPLILTLSLILVVILVLLTVLALLSHRRALKQKIWPGIPSPESEFEGLFTTHKGNFQLWLYQNDGCLWWSPCTPFTEDPPASLEVLSERCWGTMQAVEPGTDDEGPLLEPVGSEHAQDTYLVLDKWLLPRNPPSEDLPGPGGSVDIVAMDEGSEASSCSSALASKPSPEGASAASFEYTILDPSSQLLRPWTLCPELPPTPPHLKYLYLVVSDSGISTDYSSGDSQGAQGGLSDGPYSNPYENSLIPAAEPLPPSYVACS,growth of BaF3 transfectants,BaF3 cells [5]; 0.02 U/ml Epo,did not grow
same,growth of BaF3 transfectants,BaF3 cells [5]; 2 U/ml Epo,grew in the presence of 2 U/ml Epo alone
"truncated EpoR: murine EpoR with C-terminal 42 amino acids replaced with Ala-Leu (Yoshimura 1990) (protein, listed as Homo sapiens) MDHLGASLWPQVGSLCLLLAGAAWAPPPNLPDPKFESKAALLAARGPEELLCFTERLEDLVCFWEEAASAGVGPGNYSFSYQLEDEPWKLCRLHQAPTARGAVRFWCSLPTADTSSFVPLELRVTAASGAPRYHRVIHINEVVLLDAPVGLVARLADESGHVVLRWLPPPETPMTSHIRYEVDVSAGNGAGSVQRVEILEGRTECVLSNLRGRTRYTFAVRARMAEPSFGGFWSAWSEPVSLLTPSDLDPLILTLSLILVVILVLLTVLALLSHRRALKQKIWPGIPSPESEFEGLFTTHKGNFQLWLYQNDGCLWWSPCTPFTEDPPASLEVLSERCWGTMQAVEPGTDDEGPLLEPVGSEHAQDTYLVLDKWLLPRNPPSEDLPGPGGSVDIVAMDEGSEASSCSSALASKPSPEGASAASFEYTILDPSSQLLRP",responsiveness to Epo relative to the wild-type EpoR,"BaF3 cells [4]; murine EpoR, C-terminal 42 amino acids replaced with Ala-Leu, expressed in BaF3 cells",3-5 times
"EpoR(t439): human EpoR truncated at Trp439; hypersensitive to Epo (SEQ ID NOS 4 and 5) (protein, listed as Homo sapiens) MDHLGASLWPQVGSLCLLLAGAAWAPPPNLPDPKFESKAALLAARGPEELLCFTERLEDLVCFWEEAASAGVGPGNYSFSYQLEDEPWKLCRLHQAPTARGAVRFWCSLPTADTSSFVPLELRVTAASGAPRYHRVIHINEVVLLDAPVGLVARLADESGHVVLRWLPPPETPMTSHIRYEVDVSAGNGAGSVQRVEILEGRTECVLSNLRGRTRYTFAVRARMAEPSFGGFWSAWSEPVSLLTPSDLDPLILTLSLILVVILVLLTVLALLSHRRALKQKIWPGIPSPESEFEGLFTTHKGNFQLWLYQNDGCLWWSPCTPFTEDPPASLEVLSERCWGTMQAVEPGTDDEGPLLEPVGSEHAQDTYLVLDKWLLPRNPPSEDLPGPGGSVDIVAMDEGSEASSCSSALASKPSPEGASAASFEYTILDPSSQLLRP",growth of BaF3 transfectants,BaF3 cells [5]; 0.02 U/ml Epo,grew equally well
same,growth of BaF3 transfectants,BaF3 cells [5]; 2 U/ml Epo,grew equally well
same,expansion of BaF3 cells,BaF3 cells [5]; absence of exogenous cytokines,did not support cell expansion
same,functionality of the EpoR,BaF3 cells [5]; conclusion from BaF3 growth,functional and hypersensitive to Epo
